Experimental data as given in US11660338B2, “Particles comprising a shell with RNA” (BIONTECH SE, priority 2013, dated 2023).

System: Vγ9Vδ2 T cells
Settings: 7-day co-culture, 5 μM ZA, 10 U/mL IL-2; mean of two donors

Structure (SMILES): O=P(O)(O)C(O)(Cn1ccnc1)P(=O)(O)O [zoledronic acid]
- expansion rate of Vγ9δ2 T cells: about 15 fold
